Test results taken from patent US11207331B2, “Agents, compositions and methods for enhancing neurological function” (University of Southern California, priority 2007, dated 2021).
Entries after “also recorded” stand apart in the source; their conditions may differ.

Experiments:
β-amyloid = β-amyloid expression with antibody 6E10 (Western blot, immunostaining); type: in vivo, mouse; details: for decrease of 56 kDa β-amyloid (Aβ*56) band intensity vs vehicle: cortex
Protocol: In a pilot project to determine the impact of longterm exposure to THP, the impact of THP, 10 mg/kg s.c. thrice weekly for 3 months, on the progression of Alzheimer's disease (AD) pathology in 3-6 month old 3×TgAD mice was investigated. Mouse brain hemisphere sections were immunostained with specific antibody (6E10) against Aβ or HT7, which recognizes tau and PHF-tau between residue 159 and 163 and visualized with FITC conjugated second antibody.
In another experiment, THP (10 mg/kg/week, administered once a week for 6 months) was administered to 9- and 12-month male mice transgenic for Alzheimer's disease (3×Tg-AD). The 9 month old animals were started on THP at 3 months of age prior to the development of beta amyloid, whereas the 12 month old animals were begun at 6 months of age when beta amyloid had already begun to accumulate within neurons. Typically, the development of intraneuronal beta amyloid is seen in 6 and 9 month old animals and the development of plaques in 12 month old animals. Plaques are rarely seen in 9 month old animals.
Brain sections were stained with beta amyloid antibody 6E10.
THP (10 mg/kg) or vehicle was transdermal treated once a week to 3-month-old 3×Tg-AD mice for 6 months. Western blot analysis was conducted using brain protein from hippocampus with beta amyloid antibody 6E10, which recognizes the abnormally processed isoforms, as well as precursor forms of beta amyloid protein.
THP (10 mg/kg) or vehicle was subcutaneously administered once a month, once per week for 6 months, or once every other day for 3 months. Brain sections of treated mice were stained with beta amyloid antibody 6E10 which recognizes the abnormally processed isoforms, as well as precursor forms of beta amyloid protein.
Further studies were conducted using a dosing regime of once a week for six months administered subcutaneously. Three and six months old 3×Tg-AD and age-matched non-Tg mice were chosen for the experiments, since AD pathology (Aβ) starts development at 3-month and abundant accumulation at 6-months. Allopregnanolone was subcutaneously (s.c.) administrated with 10 mg/kg once per week for 6 months. For neurogenesis and neurosurvival study, BrdU, IdU and CIdU were intraperitoneal (i.p.) injected at the first 5 days, mid 5 days and 5 days before sacrifice during 6-month treatment. After 6 months of allopregnanolone treatment, mice, at 9- and 12-month old, were sacrificed.
Western blot analysis was conducted using brain protein from frontal-parietal-temporal cortex with beta amyloid antibody 6E10, which recognizes the abnormally processed isoforms, as well as precursor forms of beta amyloid protein. The expression of different forms of beta amyloid in 3×Tg-AD mice was characterized.

[1] = test system: BrdU positive cells per hippocampus; test: Survival of BrdU labeled cells in hippocampus after behavioural testing; type: in vivo, mouse
Protocol: Mice of each genotype and age received a subcutaneous (s.c.) injection of THP at a concentration of 10 mg/kg body weight (BW), an optimal dose of THP-[…] based on our previous studies. One hour after THP injection, mice were intraperitoneally (i.p.) injected with 100 mg/kg BW bromodeoxyuridine (BrdU). Two experimental paradigms were used: 1) THP treatment for behavior and cell survival assessment, in which animals received a single shot of THP/vehicle, followed by a 7-day neurogenesis and migration phase, followed by a 5-day trace-conditioning test followed 9 days later by a 1-day memory test, and scarified 21 days after a single THP injection at which time FACS analysis of BrdU positive cells was performed to assess cell survival; 2).
Hippocampus was dissected from the fixed hemispheres from cell survival assessment experiment using consistent anatomical landmarks as criteria for dissection as described in the literature. The rostral ⅓ of the hippocampus lobe was removed to avoid the subventricular zone and rostral migratory stream proliferative pools. The extracted hippocampi were homogenized using Next advance 24 sample homogenizer (Next Advance Inc., NY) for 3 minutes on speed 7. This procedure lyses the plasma lemma while preserves the nuclear envelope intact. The nuclei sample was collected into a regular 1.5 mL microcentrifuge tube by washing the beads and tube 4 times using 200 μL of PBS, and then centrifuged for 10 minutes at 10,000 rpm. Once all of the nuclei were collected in a pellet, the supernatant was discarded. The pellet was then re-suspended in 600 μL of PBS plus 0.5% Triton x-100. The number of nuclear density was estimated by counting the propidium iodide (PI), a fluorescent molecule stoichiometrically binds to DNA by intercalating between the bases with no sequence preference, positive particles. Aliquots of 25 μl were re-suspended in 200 μL of a 0.2 M solution of boric acid, pH 9.0, and heated for 1 h at 75° C. for epitope retrieval. After washed in PBS, the nuclei were incubated for 24 hours at 4° C. with primary mouse monoclonal anti-BrdU antibody (1:100, Abcam, Ab12219) and subsequently with FITC-conjugated goat anti-mouse IgG secondary antibody (1:100 in PBS; Vector Labs, FI-2001). The remainder of cell suspension is diluted to 500 μL and sent for flow cytometry assay using Beckman FC 500 System with CXP Software. Propidium iodide (PI) cells were first gated on a histogram; the expressing cells were visualized on a forward/side scatter plot. PI cells were ‘back-gated’ on the forward/side scatter plot to eliminate debris prior to analysis; this also eliminated auto fluorescence of the sample. Gates were always set using dissociates with cell aliquots which lack of the first antibody, but which were incubated with second antibody and processed alongside the experimental procedure. PI-labeled cells in a fixed volume were gated, and the number of cells showing BrdU signal was analyzed. Data were expressed as total positive cells per hippocampus.
To determine whether cognitive performance was correlated with survival of neuroprogenitor cells, hippocampi from behavioral test animals were analyzed for total number of BrdU positive cells using fluorescence activated cell sorting (FACS). As BrdU was administered one hour post THP injection at the start of the behavioral experiment, FACS analysis detected the total number of surviving BrdU+ cells and thus can be used as a marker of neural progenitor cells that survived and integrated into the hippocampal neuronal network. In 6-months-old vehicle treated non-Tg mice, BrdU+ cell survival was 2003.6±229.5.
We sought to determine whether cell survival was directly attributable to THP exposure or whether cell survival was dependent on the training experience. Thus, the relationship between survival of BrdU positive cells and cognitive performance on the memory phase of the behavioral testing was analyzed. […]

For `CC(=O)[C@H]1CC[C@H]2[C@@H]3CC[C@H]4C[C@H](O)CC[C@]4(C)[C@H]3CC[C@]12C` [THP, 3α-hydroxy-5α-pregnan-20-one], the “immunocytochemical detection of Abeta*56” value (β-amyloid; 10 mg/kg once a week for six months) was “substantially decreases Abeta*56 in hippocampal neurons”, the 6E10 immunoreactivity (β-amyloid; 10 mg/kg s.c. every other day for 3 months or once a week for 6 months) was “significantly decreases 6E10 immunoreactivity” and the 6E10 immunoreactivity (β-amyloid; 10 mg/kg s.c. once a month) was “no effect”. For the same molecule, the “6E10 / intraneuronal Aβ immunoreactivity in brain sections” value (β-amyloid; 3×Tg-AD mice, once a week for 6 months) was “lower in THP-treated brain region CA1, Cortex and Amygdala than vehicle treated-brain, but not in the subiculum; also recorded: lower in THP-treated 9-month old 3×Tg-AD mice hippocampus, cortex, and amygdala than in vehicle-treated brain, but not in subiculum”, the “AD pathology markers (Aβ 6E10, tau HT7 immunoreactivity)” value (β-amyloid; 3×TgAD mice, 10 mg/kg s.c. thrice weekly for 3 months) was “reduced the level of AD pathology markers in 3×TgAD mouse hippocampal CA1” and the “reduction of Aβ 6-mer 27 kDa band intensity” value (β-amyloid; 9-month 3×Tg-AD mice, 10 mg/kg s.c. once a week for 6 months) was 35±10%. For the same molecule, the “decrease of 56 kDa β-amyloid (Aβ*56) band intensity vs vehicle” value (β-amyloid; 9-month old 3×Tg-AD mice, 10 mg/kg s.c. once a week for 6 months) was 25±4%, the “Aβ 6-mer 27 kDa band intensity vs vehicle” value (β-amyloid; 12-month old 3×Tg mice) was “no difference” and the “decrease of 56 kDa β-amyloid (Aβ*56) band intensity vs vehicle” value (β-amyloid; 12-month old 3×Tg-AD mice, 10 mg/kg s.c. once a week for 6 months) was 15±4%. For the same molecule, the “decrease of 28 kDa β-amyloid oligomer band intensity vs vehicle” value (β-amyloid; transdermal 10 mg/kg once a week for 6 months, 9-month old 3×Tg-AD mice, hippocampus) was 39±13%, the “THP-induced proliferation (FACS BrdU) after 23 days of learning and memory” value ([1]; 3×TgAD mice, 3 and 6 month, declined with age thereafter) was “Significant THP-induced proliferation” and the “fold promotion of BrdU+ cell survival” value ([1]; 3×TgAD mice, 6-months-old) was “greater than 2 fold”. For the same molecule, the “surviving BrdU+ cells per hippocampus (FACS)” value ([1]; 3×TgAD mice, 6-months-old, 21 days after 10 mg/kg) was 1372.5±326.2, the “surviving BrdU+ cells per hippocampus (FACS)” value ([1]; 3×TgAD mice, 9-months-old) was 899.3±313.1 and the BrdU cells ([1]; 3×TgAD mice, survived BrdU cells) was 1088. The “number of surviving cells generated 20 days prior to sacrifice” value ([1]; 3×TgAD mice, unbiased stereological analysis) was “near doubling in the number of surviving cells”, the “BrdU+ cell survival vs vehicle” value ([1]; 12-months-old non-tg and 3×TgAD mice) was “no significant effect” and the “BrdU positive cells, treatment vs vehicle” value ([1]; Non-Tg mice, 3, 6, 9, 12 month) was “did not show statistical significance between treatment and vehicle groups”. For the same molecule, the “BrdU+ cell number 21 days after THP administration” value ([1]; all ages) was “an increase in BrdU+ cell number was observed at all ages”, the “surviving BrdU+ cells per hippocampus (FACS)” value ([1]; non-Tg mice, 6-months-old, 21 days after 10 mg/kg) was 2772.2±534.9 and the “surviving BrdU+ cells per hippocampus (FACS)” value ([1]; non-Tg mice, 9-months-old) was 2255.3±662.4.
